The results in this text go back to US12319679B2, “Morpholinyl, piperazinyl, oxazepanyl and diazepanyl O-glycoprotein-2-acetamido-2-deoxy-3-d-glucopyranosidase inhibitors” (BIOGEN MA INC., priority 2018, dated 2025).

The test concerns the target T1, Recombinant full length human OGA enzyme (Homo sapiens, UniProt O60502).
T1 construct: Recombinant full length human OGA enzyme was purchased from Origene; purchased Origene
T1 sequence (O60502 1-916): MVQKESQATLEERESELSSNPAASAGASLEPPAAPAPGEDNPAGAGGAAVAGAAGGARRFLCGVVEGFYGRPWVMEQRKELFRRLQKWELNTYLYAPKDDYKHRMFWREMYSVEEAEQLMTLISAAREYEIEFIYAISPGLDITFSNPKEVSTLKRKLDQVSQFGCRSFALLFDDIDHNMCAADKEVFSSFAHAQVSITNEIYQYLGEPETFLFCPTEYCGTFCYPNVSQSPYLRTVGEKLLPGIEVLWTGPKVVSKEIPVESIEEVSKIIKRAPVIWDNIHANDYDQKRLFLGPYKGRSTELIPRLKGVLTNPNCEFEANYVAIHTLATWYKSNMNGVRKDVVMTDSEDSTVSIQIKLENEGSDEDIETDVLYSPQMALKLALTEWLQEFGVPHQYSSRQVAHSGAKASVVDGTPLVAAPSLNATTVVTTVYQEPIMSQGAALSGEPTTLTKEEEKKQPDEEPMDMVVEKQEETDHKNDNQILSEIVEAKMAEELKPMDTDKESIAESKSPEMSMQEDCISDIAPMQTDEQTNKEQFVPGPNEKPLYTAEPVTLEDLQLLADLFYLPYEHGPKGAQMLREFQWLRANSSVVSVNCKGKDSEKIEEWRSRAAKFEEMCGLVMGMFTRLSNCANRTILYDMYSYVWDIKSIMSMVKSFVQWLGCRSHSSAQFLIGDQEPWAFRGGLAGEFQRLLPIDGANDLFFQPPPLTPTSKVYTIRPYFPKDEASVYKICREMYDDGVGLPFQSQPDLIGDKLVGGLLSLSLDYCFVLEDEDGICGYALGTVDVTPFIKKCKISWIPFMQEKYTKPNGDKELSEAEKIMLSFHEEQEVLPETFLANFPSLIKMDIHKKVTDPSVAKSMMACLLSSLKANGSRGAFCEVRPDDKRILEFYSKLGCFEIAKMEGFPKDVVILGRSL
In words: OGA Enzyme Inhibition Biochemical Assay. The conditions noted are these: 1 nM OGA, 100 μM 4-MUGlcNAc (Km), pH 6.4, 90 minutes at room temperature; 10-point dose-response starting from 20 μM. How it is done:
OGA Enzyme Inhibition Biochemical Assay
Recombinant full length human OGA enzyme was purchased from Origene. 4-MUGlCNAc substrate was purchased from Sigma. All other reagents were purchased from Sigma or Fisher. Assay buffer consists of the McIlvaine buffer system, pH 6.4 (0.2M Na2HPO4 mixed with 0.1M citric acid) and 0.01% BSA. Reactions consist of 1 nM OGA, 100 μM 4-MUGlcNAc (Km), and compound in a final volume of 10 μl. Reactions were incubated for 90 minutes at room temperature and quenched with 40 μl of 3M glycine, pH 10 and read on a Perkin Elmer Envision plate reader (Ex: 355 nm/Em: 460 nm). Compounds were tested with a 10-point dose-response starting from 20 μM with a 4-fold dilution. Data was fit using GraphPad Prism using a 4-paramter fit with variable slope.

What is called IC50 is the midpoint of a concentration-inhibition curve.

As to `COc1cc(C[C@@H]2CN(Cc3cnc(NC(C)=O)s3)CCO2)ccn1` [Example 1-3, (R)—N-(5-((2-((2-methoxypyridin-4-yl)methyl)morpholino)methyl)thiazol-2-yl)acetamide], the IC50 is 43 nM.

For the compound `COc1cc(C[C@H]2CN(Cc3cnc(NC(C)=O)s3)CCO2)ccn1` [Example 1-4, (S)—N-(5-((2-((2-methoxypyridin-4-yl)methyl)morpholino)methyl)thiazol-2-yl)acetamide], the IC50 worked out at 11000 nM.

Consider `COc1nccc(C[C@@H]2CN(Cc3cnc(NC(C)=O)s3)CCO2)c1C` [Example 1-5, (R)—N-(5-((2-((2-methoxy-3-methylpyridin-4-yl)methyl)morpholino)methyl)thiazol-2-yl)acetamide], for which the IC50 is 61 nM.

For the compound `COc1cc(C[C@@H]2CN(Cc3cnc(NC(C)=O)s3)CCO2)ccc1F` [Example 1-6, (R)—N-(5-((2-(4-fluoro-3-methoxybenzyl)morpholino)methyl)thiazol-2-yl)acetamide], the IC50 was 100 nM.

Regarding `COc1nccc(C[C@@H]2CN(Cc3cnc(NC(C)=O)s3)CCO2)n1` [Example 1-7, (R)—N-(5-((2-((2-methoxypyrimidin-4-yl)methyl)morpholino)methyl)thiazol-2-yl)acetamide], the IC50 stood at 110 nM.

Take `COc1cc(C[C@@H]2CN(Cc3cnc(NC(C)=O)s3)CCO2)ncn1` [Example 1-8, (R)—N-(5-((2-((6-methoxypyrimidin-4-yl)methyl)morpholino)methyl)thiazol-2-yl)acetamide]: the IC50 was 130 nM.

As to `CC(=O)Nc1ncc(CN2CCO[C@H](Cc3ccnc(C(F)(F)F)n3)C2)s1` [Example 1-9], the IC50 came to 1500 nM.

Take `CC(=O)Nc1ncc(CN2CCO[C@H](Cc3ccnc(OCC(F)(F)F)c3)C2)s1` [Example 1-10]: the IC50 was 160 nM.

Consider `CCOc1cc(C[C@@H]2CN(Cc3cnc(NC(C)=O)s3)CCO2)ccn1` [Example 1-11, (R)—N-(5-((2-((2-ethoxypyridin-4-yl)methyl)morpholino)methyl)thiazol-2-yl)acetamide], for which the IC50 is 130 nM.

For `CC(=O)Nc1ncc(CN2CCO[C@H](Cc3ccnc(OC(C)C)c3)C2)s1` [Example 1-12, (R)—N-(5-((2-((2-isopropoxypyridin-4-yl)methyl)morpholino)methyl)thiazol-2-yl)acetamide], the half-maximal inhibitory concentration (IC50) was determined as 270 nM.

For `CC(=O)Nc1ncc(CN2CCO[C@H](Cc3ccnc(C(F)F)c3)C2)s1` [Example 1-13], the IC50 stood at 260 nM.

For the compound `CC(=O)Nc1ncc(CN2CCO[C@H](Cc3ccnc(C)n3)C2)s1` [Example 1-14, (R)—N-(5-((2-((2-methylpyrimidin-4-yl)methyl)morpholino)methyl)thiazol-2-yl)acetamide], the IC50 came out at 180 nM.

Consider `COc1nccc(C[C@@H]2CN(Cc3cnc(NC(C)=O)s3)CCO2)c1F` [Example 1-15, (R)—N-(5-((2-((3-fluoro-2-methoxypyridin-4-yl)methyl)morpholino)methyl)thiazol-2-yl)acetamide], for which the IC50 was 56 nM.

With `CC(=O)Nc1ncc(CN2CCO[C@H](Cc3ccc(C)cn3)C2)s1` [Example 1-16, (R)—N-(5-((2-((5-methylpyridin-2-yl)methyl)morpholino)methyl)thiazol-2-yl)acetamide], the IC50 was determined as 160 nM.

Consider `CC(=O)Nc1ncc(CN2CCO[C@H](Cc3ccnc(OC(F)F)c3)C2)s1` [Example 1-17, (R)—N-(5-((2-((2-(difluoromethoxy)pyridin-4-yl)methyl)morpholino)methyl)thiazol-2-yl)acetamide], for which the IC50 turned out to be 136 nM.

Turning to `CC(=O)Nc1ncc(CN2CCO[C@H](Cc3cc(C)c(F)cn3)C2)s1` [Example 1-18, (R)—N-(5-((2-((5-fluoro-4-methylpyridin-2-yl)methyl)morpholino)methyl)thiazol-2-yl)acetamide], the IC50 was 200 nM.

As to `CC(=O)Nc1ncc(CN2CCO[C@H](Cc3ccc(C)nc3)C2)s1` [Example 1-19, (R)—N-(5-((2-((6-methylpyridin-3-yl)methyl)morpholino)methyl)thiazol-2-yl)acetamide], the IC50 turned out to be 110 nM.

Regarding `CC(=O)Nc1ncc(CN2CCO[C@H](Cc3ccnc(C)c3)C2)s1` [Example 1-20, (R)—N-(5-((2-((2-methylpyridin-4-yl)methyl)morpholino)methyl)thiazol-2-yl)acetamide], the IC50 came out at 84 nM.

Regarding `CC(=O)Nc1ncc(CN2CCO[C@H](Cc3cc(C)nc(C)c3)C2)s1` [Example 1-21, (R)—N-(5-((2-((2,6-dimethylpyridin-4-yl)methyl)morpholino)methyl)thiazol-2-yl)acetamide], the IC50 is 38 nM.

On to `CC(=O)Nc1ncc(CN2C[C@@H](Cc3ncc(F)cn3)OC[C@@H]2C)s1` [Example 1-26], for which the half-maximal inhibitory concentration (IC50) stood at 5.1 nM.

As to `CC(=O)Nc1ncc(CN2C[C@@H](Cc3ncc(F)cn3)OC[C@H]2C)s1` [Example 1-27], the IC50 is 6600 nM.

As to `CC(=O)Nc1ncc(CN2C[C@H](Cc3ncc(F)cn3)OC[C@@H]2C)s1` [Example 1-28, N-(5-(((2S,5S)-2-((5-fluoropyrimidin-2-yl)methyl)-5-methylmorpholino)methyl)thiazol-2-yl)acetamide], the IC50 came to 150 nM.

For `CC(=O)Nc1ncc(CN2C[C@H](Cc3ncc(F)cn3)OC[C@H]2C)s1` [Example 1-29, N-(5-(((2S,5R)-2-((5-fluoropyrimidin-2-yl)methyl)-5-methylmorpholino)methyl)thiazol-2-yl)acetamide], the IC50 was found to be 12000 nM.

With `COc1cc(C[C@@H]2CN(Cc3cnc(NC(C)=O)s3)[C@@H](C)CO2)ccn1` [Example 1-30, N-(5-(((2R,5S)-2-((2-methoxypyridin-4-yl)methyl)-5-methylmorpholino)methyl)thiazol-2-yl)acetamide], the IC50 came out at 17000 nM.

On to `CC(=O)Nc1ncc(CN2C[C@@H](Cc3cc(C)nc(C)c3)OC[C@@H]2C)s1` [Example 1-31], for which the IC50 is 9 nM.

For the compound `CC(=O)Nc1ncc(CN2C[C@@H](Cc3ccnc(C)c3)OC[C@@H]2C)s1` [Example 1-32, N-(5-(((2R,5S)-5-methyl-2-((2-methylpyridin-4-yl)methyl)morpholino)methyl)thiazol-2-yl)acetamide], the IC50 was determined as 1.4 nM.

In the case of `CC(=O)Nc1ncc(CN2C[C@@H](Cc3ccc(C)nc3)OC[C@@H]2C)s1` [Example 1-33, N-(5-(((2R,5S)-5-methyl-2-((6-methylpyridin-3-yl)methyl)morpholino)methyl)thiazol-2-yl)acetamide], the IC50 turned out to be 31 nM.

With `CC(=O)Nc1nc(F)c(CN2CCO[C@H](Cc3ccc(C)nc3)C2)s1` [Example 1-48, (R)—N-(4-fluoro-5-((2-((6-methylpyridin-3-yl)methyl)morpholino)methyl)thiazol-2-yl)acetamide], the IC50 was found to be 140 nM.

Consider `CC(=O)Nc1nc(F)c(CN2C[C@@H](Cc3ccc(C)nc3)OC[C@@H]2C)s1` [Example 1-49, N-(4-fluoro-5-(((2R,5S)-5-methyl-2-((6-methylpyridin-3 yl)methyl)morpholino)methyl)thiazol-2-yl)acetamide], for which the IC50 was 170 nM.

In the case of `CC(=O)Nc1ncc(CN2C[C@@H](Cc3ccnc(C)c3)NC[C@@H]2C)s1` [Example 2-1, N-(5-(((2S,5R)-2-methyl-5-((2-methylpyridin-4-yl)methyl)piperazin-1-yl)methyl)thiazol-2-yl)acetamide], the IC50 was determined as 7.4 nM.
